The values below are quoted from earlier work in the PKSmart pharmacokinetics tables (Seal et al. 2025).

This data set is described as follows: Lombardo, Berellini, Obach 2018, Drug Metab Dispos 46:1466, doi 10.1124/dmd.118.082966. Particulars: human; for MRT / Vd / clearance / half-life: in vivo, iv; for fraction unbound: plasma.

*1 amine or outer side, *2 acyl side, *3 side chain or, on linkers, in order; H or OH if unused. Where a SMILES comes first, the peptide text is derived from it. Bridges are numbered along the chain shown (N, C = ends). [ ]: non-standard residue; d: D form. The star is where a group is joined. ξ: configuration not given here. X1 = O=C1CC(C(=O)[*:2])N([*:1])CC1CS[C@@H]1CN2CCC1CC2; ξThr(3R)(O-yl) = C[C@@H](O[*:3])C(N[*:1])C(=O)[*:2]; ξNMePhe(4-NMe2) = CNC(Cc1ccc(N(C)C)cc1)C(=O)O; Picolinoyl(3-OH) = O=C(c1ncccc1O)*; ξPhg = NC(C(=O)O)c1ccccc1; ξAbu = CCC(N)C(=O)O; ξP = O=C(O)C1CCCN1

For orientation: MRT means a mean duration of stay, worked out from the concentration-time curve. What is called Vd is a proportionality between amount in the body and measured concentration, not a real space. For orientation: clearance means the volume of plasma or blood freed of the substance per unit of time. The half-life is how long it takes for the measured level to halve. With `CC(=O)OCC1=C(C(=O)O)N2C(=O)C(NC(=O)CC#N)[C@H]2SC1` (some centres undefined), the MRT is 2.21 h, the Vd is 0.49 L/kg, the clearance was 0.221 L/h/kg and the half-life is 2.02 h.

For `CCC1C(=O)N(C)c2cnc(Nc3ccc(C(=O)NC4CCN(C)CC4)cc3OC)nc2N1C1CCCC1` (centres undefined), the MRT is 31.3 h, the distribution volume (Vd) was 31.2 L/kg, the clearance was 1.03 L/h/kg and the half-life was 40.1 h.

A word on the fraction unbound: it is the share of the substance not bound to proteins or other matrix. As to `Cc1onc(-c2ccccc2)c1-c1ccc(S(N)(=O)=O)cc1`, the MRT is 9.4 h, the Vd is 0.75 L/kg, the clearance is 0.084 L/h/kg and the half-life was 7.4 h. The fraction unbound was 0.02.

Consider `CCC1NC(=O)C(NC(=O)c2ncccc2O)[C@@H](C)OC(=O)C(c2ccccc2)NC(=O)C2CC(=O)C(CS[C@@H]3CN4CCC3CC4)CN2C(=O)C(Cc2ccc(N(C)C)cc2)N(C)C(=O)C2CCCN2C1=O` (stereo partly drawn) ({Picolinoyl(3-OH)}-[ξThr(3R)(O-yl)][ξAbu][ξP][ξNMePhe(4-NMe2)][X1][ξPhg]; ester 1-C), for which the mean residence time MRT was 0.7 h, the distribution volume (Vd) is 0.67 L/kg, the clearance is 0.96 L/h/kg and the half-life is 0.87 h. The fraction unbound is 0.34.

Consider `Cc1cc(-n2cccc2)c(S(C)(=O)=O)cc1C(=O)NC(=N)N`, for which the MRT was 2.3 h, the Vd is 1.1 L/kg, the clearance was 0.492 L/h/kg and the half-life is 2.2 h.

As to `CCN(CC)CCOC(=O)C(Cc1cccc2ccccc12)CC1CCCO1` (centres undefined), the MRT was 1.5 h, the distribution volume (Vd) was 0.98 L/kg, the clearance was 0.648 L/h/kg and the half-life was 1.35 h. The fraction unbound was 0.2.

For `O=C(N[C@H](CO)[C@H](O)c1ccc([N+](=O)[O-])cc1)C(Cl)Cl`, the MRT is 6.5 h, the Vd was 0.94 L/kg, the clearance was 0.144 L/h/kg and the half-life was 4.6 h.

As for `CN(C)CCCNC(=O)/C(=C/CCCCC(O)=NO)COc1cccc2ccccc12`, the mean residence time MRT was 4.1 h, the distribution volume (Vd) was 0.45 L/kg, the clearance is 0.109 L/h/kg and the half-life was 2.1 h.

On to `NCC1CCC(C(=O)O)CC1` (centres undefined), for which the MRT was 2.6 h, the Vd is 0.38 L/kg, the clearance is 0.144 L/h/kg and the half-life was 2.3 h.

Turning to `CCN(CC)c1ccc2cc(C(=O)Nc3ccc4[nH]c(C(=O)N5C[C@@H](CCl)c6c5cc(OC(=O)Nc5ccccc5)c5[nH]cc(C)c65)cc4c3)oc2c1`, the MRT is 0.51 h, the Vd is 0.09 L/kg, the clearance was 0.174 L/h/kg and the half-life is 0.48 h.

For `O=C(NC1CC[C@@H](c2cccc(F)c2F)CN(CC(F)(F)F)C1=O)N1CCC(n2c(=O)[nH]c3ncccc32)CC1` (some centres undefined), the mean residence time MRT was 2.5 h, the Vd is 0.86 L/kg, the clearance is 0.348 L/h/kg and the half-life is 8.2 h.

For the compound `CN(C)N=Nc1nc[nH]c1C(N)=O`, the MRT is 7.8 h, the volume of distribution (Vd) is 1.2 L/kg, the clearance was 0.156 L/h/kg and the half-life is 6.2 h. Moreover, the fraction unbound was 1.

As for `O=C(O)C[C@@H]1CC[C@H](NC(=O)Cc2cccs2)B(O)O1`, the MRT is 1.64 h, the Vd was 0.29 L/kg, the clearance was 0.176 L/h/kg and the half-life was 1.34 h. For the same compound, the fraction unbound is 0.67.

In the case of `COc1cc([S+](C)O)ccc1-c1nc2cnccc2[n-]1` (centres undefined), the MRT is 1.3 h, the Vd is 1.67 L/kg, the clearance was 1.24 L/h/kg and the half-life is 1.2 h. The free fraction (fraction unbound) was 0.48.

As to `O=P(NCCCl)(NCCCl)O[C@@H]1O[C@H](CO)[C@@H](O)[C@H](O)[C@H]1O`, the MRT is 2.49 h, the Vd is 0.24 L/kg, the clearance was 0.096 L/h/kg and the half-life is 2.37 h. In addition, the fraction unbound was 0.71.

Consider `CCCC[P@@](=O)(O)CCCN`, for which the clearance is 0.0936 L/h/kg and the half-life was 2.1 h.

On to `C#C[C@@]1(O)[C@@H](CO)O[C@H](n2ccc(N)nc2=O)[C@@H]1O`, for which the MRT is 11.7 h, the Vd is 1.1 L/kg, the clearance was 0.096 L/h/kg and the half-life is 10.9 h.

For `CC(C)OC(=O)CCC/C=C/C[C@@H]1[C@@H](CC[C@@H](O)CCc2ccccc2)[C@H](O)C[C@@H]1O`, the clearance is 0.402 L/h/kg, the half-life is 0.28 h and the unbound share (fraction unbound) is 0.1.

As to `CC(=O)O[C@@]12CO[C@@H]1C[C@H](O)[C@@]1(C)C(=O)C(=O)C3C(C)[C@@H](OC(=O)C(O)C(NC(=O)OC(C)(C)C)c4ccccc4)C[C@@](O)([C@@H](OC(=O)c4ccccc4)[C@H]21)C3(C)C` (some centres undefined), the MRT was 2.5 h, the Vd is 2.1 L/kg, the clearance is 0.84 L/h/kg and the half-life was 11 h. For the same compound, the fraction unbound was 0.04.

Take `CCCN(CCC)CCc1cccc2[nH]c(O)cc12`: the MRT was 4.3 h, the distribution volume (Vd) was 7.7 L/kg, the clearance is 1.8 L/h/kg and the half-life was 6 h. In addition, the free fraction (fraction unbound) was 0.6.

Consider `C[C@H]1CN(c2c(F)cc3c(=O)c(C(=O)O)cn(C4CC4)c3c2OC(F)F)CCN1`, for which the mean residence time MRT was 7.1 h, the Vd was 1.1 L/kg, the clearance was 0.162 L/h/kg and the half-life was 5.9 h.

For `Cc1cccc(C)c1NC(=O)C1CCCCN1C` (centres undefined), the mean residence time (MRT) was 2.5 h, the Vd is 0.95 L/kg, the clearance was 0.408 L/h/kg and the half-life was 2 h. The fraction unbound is 0.3.

For the compound `Cn1c(NCCN(CCO)CCCc2ccc([N+](=O)[O-])cc2)cc(=O)n(C)c1=O`, the mean residence time (MRT) is 1.56 h, the Vd is 1.96 L/kg, the clearance was 1.25 L/h/kg and the half-life is 1.52 h. Moreover, the unbound share (fraction unbound) was 0.09.

For `N#Cc1ccc2[nH]cc(CCCCN3CCN(c4ccc5oc(C(N)=O)cc5c4)CC3)c2c1`, the MRT is 21.5 h, the Vd is 4.85 L/kg, the clearance is 0.226 L/h/kg and the half-life was 15.7 h. The fraction unbound is 0.03.

On to `CN1CCc2nc(C(=O)N[C@@H]3CC(C(=O)N(C)C)CC[C@@H]3NC(=O)C(=O)Nc3ccc(Cl)cn3)sc2C1` (some centres undefined), for which the fraction unbound was 0.5.

`COc1cccc2c1C(=O)c1c(O)c3c(c(O)c1C2=O)C[C@@](O)(C(=O)CO)C[C@@H]3O[C@H]1C[C@H](N)[C@H](OCc2ccccc2)[C@H](C)O1`: the MRT is 43.2 h, the Vd was 48 L/kg, the clearance is 1.11 L/h/kg and the half-life was 34.6 h.

Regarding `CNC(=O)c1c(I)c(NC(C)=O)c(I)c(C(=O)O)c1I`, the MRT was 1.2 h, the Vd was 0.17 L/kg, the clearance is 0.144 L/h/kg and the half-life is 1.3 h.

In the case of `CN(CCCCCCN(C)C(=O)Oc1ccc[n+](C)c1)C(=O)Oc1ccc[n+](C)c1`, the MRT was 82.4 h, the volume of distribution (Vd) was 1 L/kg, the clearance is 0.012 L/h/kg and the half-life is 59.8 h.

With `COc1cc(Cc2cnc(N)nc2N)c2cc(Cc3c(C(=O)N(C)C)[nH]c4ccc(Cl)cc34)oc2c1OC`, the MRT was 11.3 h, the Vd was 5.06 L/kg, the clearance is 0.449 L/h/kg and the half-life was 44.5 h.

Consider `CCOc1ccc(CC2=NCCc3cc(OCC)c(OCC)cc32)cc1OCC`, for which the MRT is 9 h, the Vd was 1.9 L/kg, the clearance is 0.21 L/h/kg and the half-life was 9.3 h.

Take `C[C@H]1O[C@H](O[C@H]2[C@H](O)[C@@H](O)[C@@H](OC(C(=O)C(O)CO)[C@H](O)CO)O[C@@H]2CO)[C@H](O)[C@@H](O)[C@@H]1N[C@H]1C=C(CO)[C@@H](O)[C@H](O)[C@H]1O` (some centres undefined): the mean residence time (MRT) is 2.4 h, the volume of distribution (Vd) is 0.32 L/kg, the clearance was 0.132 L/h/kg and the half-life is 2.7 h.

For the compound `CCN[C@@H](C)Cc1cccc(C(F)(F)F)c1`, the mean residence time (MRT) is 18 h, the Vd is 11 L/kg, the clearance is 0.66 L/h/kg and the half-life is 14 h. In addition, the fraction unbound was 0.66.

`Cc1cccc(Cl)c1C(=O)NC(Cc1ccc(NC(=O)c2c(Cl)cncc2Cl)cc1)C(=O)O` (centres undefined): the MRT was 1.3 h, the volume of distribution (Vd) was 0.3 L/kg, the clearance was 0.222 L/h/kg and the half-life was 3.3 h. Besides, the fraction unbound is 0.1.

Turning to `CNS(=O)(=O)CCc1ccc2[nH]cc(C3CCN(C)CC3)c2c1`, the mean residence time (MRT) is 6.1 h, the distribution volume (Vd) is 2.4 L/kg, the clearance is 0.396 L/h/kg and the half-life is 6.6 h.
